From the supplement of paper PMC10307832

Experiments:
Experiment in all cases: relative viability (nuclei count vs DMSO), 5 days (fraction); higher = more cells survive
Fedratinib + Tozasertib = compound: Cc1cnc(Nc2ccc(OCCN3CCCC3)cc2)nc1Nc1cccc(S(=O)(=O)NC(C)(C)C)c1 [Fedratinib] + Cc1cc(Nc2cc(N3CCN(C)CC3)nc(Sc3ccc(NC(=O)C4CC4)cc3)n2)n[nH]1 [Tozasertib] (partner 0.1 µM)
How it was run: (§1)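 Cells from lung cancer lines were seeded into 1536-well plates and, one day later, dosed by pin tool. Treatments were either a single drug or a fixed dose of an anchor drug with five library-drug doses (not always all listed) in √10 steps. After 5 days, nuclei were stained in a one-step fixation (final 0.05% Triton X-100, 1% formaldehyde, 1 ug/ml Hoechst) and counted on 4× images, and relative viability is the treated-to-vehicle nuclei ratio, as the median of duplicate plates.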

Fedratinib + Linsitinib = compound: Cc1cnc(Nc2ccc(OCCN3CCCC3)cc2)nc1Nc1cccc(S(=O)(=O)NC(C)(C)C)c1 [Fedratinib] + C[C@]1(O)C[C@@H](c2nc(-c3ccc4ccc(-c5ccccc5)nc4c3)c3c(N)nccn32)C1 [Linsitinib] (partner 1 µM)
How it was run: as §1

Fedratinib + Palbociclib = compound: Cc1cnc(Nc2ccc(OCCN3CCCC3)cc2)nc1Nc1cccc(S(=O)(=O)NC(C)(C)C)c1 [Fedratinib] + CC(=O)c1c(C)c2cnc(Nc3ccc(N4CCNCC4)cn3)nc2n(C2CCCC2)c1=O [Palbociclib] (partner 0.5 µM)
How it was run: as §1

GW-2580 + Foretinib = compound: COC1=CC=C(C=C1)COC2=C(C=C(C=C2)CC3=CN=C(N=C3N)N)OC [GW-2580] + COc1cc2c(Oc3ccc(NC(=O)C4(C(=O)Nc5ccc(F)cc5)CC4)cc3F)ccnc2cc1OCCCN1CCOCC1 [Foretinib] (partner 0.25 µM)
How it was run: as §1

Fedratinib + Navitoclax = compound: Cc1cnc(Nc2ccc(OCCN3CCCC3)cc2)nc1Nc1cccc(S(=O)(=O)NC(C)(C)C)c1 [Fedratinib] + CC1(C)CCC(c2ccc(Cl)cc2)=C(CN2CCN(c3ccc(C(=O)NS(=O)(=O)c4ccc(N[C@H](CCN5CCOCC5)CSc5ccccc5)c(S(=O)(=O)C(F)(F)F)c4)cc3)CC2)C1 [Navitoclax] (partner 0.5 µM)
How it was run: as §1

Cell Line	relative viability (Fedratinib + Tozasertib; first compound 0.1 µM)	relative viability (Fedratinib + Tozasertib; first compound 0.3162 µM)	relative viability (Fedratinib + Tozasertib; first compound 1 µM)	relative viability (Fedratinib + Linsitinib; first compound 0.1 µM)	relative viability (Fedratinib + Linsitinib; first compound 0.3162 µM)	relative viability (Fedratinib + Linsitinib; first compound 1 µM)	relative viability (Fedratinib + Palbociclib; first compound 0.1 µM)	relative viability (Fedratinib + Palbociclib; first compound 0.3162 µM)	relative viability (Fedratinib + Palbociclib; first compound 1 µM)	relative viability (GW-2580 + Foretinib; first compound 0.08 µM)	relative viability (GW-2580 + Foretinib; first compound 0.8 µM)	relative viability (GW-2580 + Foretinib; first compound 2.53 µM)	relative viability (GW-2580 + Foretinib; first compound 8 µM)	relative viability (Fedratinib + Navitoclax; first compound 0.1 µM)	relative viability (Fedratinib + Navitoclax; first compound 0.3162 µM)	relative viability (Fedratinib + Navitoclax; first compound 1 µM)
NCI-H1975	0.44	0.734	0.389	0.897	0.929	0.872	0.644	0.304	0.413	0.965	1.03	0.939	0.803	1.08	1.01	0.953
CAL-12T	0.285	0.304	0.322	0.739	0.819	0.853	0.295	0.411	0.446	1.2	1.25	1.11	1.06	1	1.15	1.13
NCI-H1623	0.414	0.486	0.397							0.866	1.01	0.725	0.986			
HCC-44	0.258	0.843	0.805	0.621	0.652	0.667	0.95	0.968	0.983					0.914	0.874	1.04
EKVX	0.359	0.343	0.407	1.09	0.967	0.982	0.391	0.403	0.414	0.971	1.11	0.726	0.779	1.08	0.918	0.944
NCI-H1651	0.537	0.616	0.623	0.976	0.954	1.01	0.49	0.485	0.508	0.958	0.804	0.754	0.745	0.914	0.958	1.07
NCI-H1944	0.25	0.225	0.209	1.28	1.12	1.1	0.305	0.358	0.318	0.945	0.886	0.966	0.631	1.04	1.07	1.03
NCI-H1703					0.98	0.615				0.404	0.378	0.346	0.342	0.482	0.955	0.498
Calu-6				1.02	0.953	0.917				0.866	0.898	0.915	0.858	0.828	0.795	0.727
EBC-1				0.764	0.937	0.814				0.0973	0.114	0.107	0.0908	0.28	0.282	0.155
SW 1573	0.148	0.21	0.14	0.683	0.768	0.802	0.41	0.373	0.302	1.02	1.02	1.02	0.852	0.984	1	0.927
A-427	0.183	0.194	0.16	1.13	1.05	1.11	0.505	0.492	0.487	1.1	1.14	0.892	1.01	0.973	0.905	0.933
NCI-H2347	0.368	0.602	0.483	0.871	0.922	0.878	0.37	0.426	0.391	0.739	0.885	0.586	1.17	0.675	0.823	0.733
NCI-H1355	0.325	0.593	0.421	0.684	0.822	0.796	0.412	0.396	0.385	1.04	1.06	0.841	0.923	0.796	0.973	0.949
NCI-H358	0.0945	0.0925	0.0987	0.565	0.597	0.53	0.131	0.0975	0.107	0.761	0.79	0.679	0.557			
PC-3 [JPC-3]	0.833	0.894	0.864	0.924	0.932	0.951	0.481	0.523	0.542	1.06	1.06	0.948	0.865	0.856	0.804	0.782
NCI-H2228	0.188	0.221	0.227	0.609	0.837	0.543	0.648	0.53	0.523	0.947	0.95	0.879	0.848	0.631	0.838	0.599
HOP-62	0.289	0.362	0.358	0.837	0.975	0.884	0.437	0.426	0.393	1.27	1.25	1.02	1.11	1.03	1.01	1.07
HARA	0.107	0.105	0.0905	1.09	0.975	0.979	0.261	0.301	0.214	1.06	0.849	1.03	0.676	1.17	1.12	1.15
NCI-H838	0.248	0.271	0.21	1.01	1.05	0.984	0.197	0.228	0.164	1.15	1.14	0.997	1.03	1.11	1.17	1.06
NCI-H1755	0.53	0.524	0.523	0.995	1	0.885	0.438	0.462	0.413	1.02	0.967	0.907	0.679	1	0.972	0.894
HCC-78	0.402	0.36	0.392	0.427		0.49	0.47	0.443	0.476	0.524	0.605	0.513	0.497	0.676		0.834
IA-LM				0.547	0.546	0.786				1.17	1.28	1.26	0.952	0.884	0.721	0.972

Cell Line	relative viability (Fedratinib + Tozasertib; first compound 0.1 µM)	relative viability (Fedratinib + Tozasertib; first compound 0.3162 µM)	relative viability (Fedratinib + Tozasertib; first compound 1 µM)	relative viability (Fedratinib + Linsitinib; first compound 0.1 µM)	relative viability (Fedratinib + Linsitinib; first compound 0.3162 µM)	relative viability (Fedratinib + Linsitinib; first compound 1 µM)	relative viability (Fedratinib + Palbociclib; first compound 0.1 µM)	relative viability (Fedratinib + Palbociclib; first compound 0.3162 µM)	relative viability (Fedratinib + Palbociclib; first compound 1 µM)	relative viability (GW-2580 + Foretinib; first compound 0.08 µM)	relative viability (GW-2580 + Foretinib; first compound 0.8 µM)	relative viability (GW-2580 + Foretinib; first compound 2.53 µM)	relative viability (GW-2580 + Foretinib; first compound 8 µM)	relative viability (Fedratinib + Navitoclax; first compound 0.1 µM)	relative viability (Fedratinib + Navitoclax; first compound 0.3162 µM)	relative viability (Fedratinib + Navitoclax; first compound 1 µM)
NCI-H322M	0.52	0.447	0.333	0.95	0.939	0.799	0.487	0.473	0.454	1.02	1.06	0.924	0.979	1.16	1.18	1.23
NCI-H3122	0.259	0.362	0.299	1.02	1.01	0.948	0.199	0.184	0.159	1.07	0.991	0.982	0.961	1.01	0.964	1.01
COR-L23	0.103	0.186	0.168	1.04	0.906	0.759	0.303	0.26	0.131	1.12	1.15	1.09	0.882	0.936	1.06	0.899
NCI-H2087	0.205	0.206	0.179	1.02	0.923	0.859	0.23	0.24	0.258	1.21	1.25	1.2	0.937	0.928	0.962	1
LC-2-ad	0.335	0.423	0.41	0.838	0.85	0.71	0.535	0.486	0.476	0.826	0.931	0.991	0.936	0.436	0.45	0.3
NCI-H1915	0.329	0.417	0.328	1.04	1.08	1.03	0.505	0.498	0.422	1.26	0.768	1.12	1.06	0.747	0.726	0.761
NCI-H650	0.312	0.764	0.69		0.994	0.596	0.285	0.345	0.324	1.06	1.05	0.932	0.94			
NCI-H1792				0.611	0.547	0.542	0.684	0.622	0.611					0.653	0.58	0.59
ChaGo-K-1	0.213	0.245	0.217				0.966	0.814	0.961	0.994	0.965	0.924	0.881	0.786	1.11	0.425
NCI-H2342	0.51	0.713	0.695				0.531	0.606	0.593	1.02	1.05	0.942	1.07			
NCI-H1299				0.946	0.96	0.994				1.17	1.09	0.981	0.971	1.04	1.06	1.01
NCI-H1650		0.408	0.335				0.299	0.408	0.288	1.29	1.43	1.19	1.05	1.25	1.12	1.15
SW 900	0.358	0.502	0.434				0.547	0.514	0.47	0.831	0.905	1.37	0.878			
NCI-H596	0.899	0.878	0.916	1.01	1.08	1.08				0.795	0.88	0.957	0.823	0.853	0.992	0.976
NCI-H1648	0.409	0.567	0.422				0.257	0.262	0.25							
NCI-H522	0.527	0.514	0.573				0.847	0.893	1.03							
A549				0.56	0.539	0.601				1.01	0.577	1.06	0.902	1.55	1.2	1.1
NCI-H2170	0.481	0.743	0.599				0.379	0.363	0.344	1.05	0.957	0.958	1.04	0.626	0.653	0.429
NCI-H661	0.327	0.326	0.371	0.512	0.533	0.622	0.397	0.401	0.359	1.08	0.987	1.03	0.771			
NCI-H1563				1.16	1.18	1.16				0.886	0.961	0.886	0.905			
ABC-1	0.179	0.146	0.138	0.625	0.859	0.713	0.691	0.704	0.609	1.09	1.16	0.931	0.86			
LCLC-103H	0.304	0.524	0.381	1.19	1.1	0.966	0.479	0.502	0.477	0.979	0.865	0.83	0.676			
